Columns and labels:
5-HT uptake = experiment: Test 173: potentiation of 5-HTP (5-hydroxytryptophane) induced hypermotility in mice (inhibition of 5HT uptake, or 5HT potentiation, test); format: in vivo, mice (female, NMRI strain); conditions: for FG 8033 is better by: 5-HT Potentiation % / FG 8033 is better by: 5-HT Potentiation Factor: FG 8033 compared with the listed compound, mice s.c.; for ED50: Mus musculus, sc, read-out: Test 173 (dose increasing the activity to double the activity found with controls receiving 5-HTP alone; ED50), s.c., 5-HTP 150 mg/kg i.p., motility 45-75 min after 5-HTP, water-soluble salt
Text: I. POTENTIATION OF 5-HTP (5-HYDROXYTRYPTOPHANE) INDUCED HYPERMOTILITY IN MICE
This behavior is characterized by continuous jerky locomotion, head movements from side to side, abduction of the hind limbs, tremor, and lordosis.
Measurement of the motility after administration of test drugs to 5-HTP-pretreated mice is therefore used as a test for 5-HT-potentiation, which most probably proceeds through an inhibition of 5-HT uptake.
Female mice of the NMRI strain weighing 20-22 g are used. The controls receive 5-HTP 150 mg/kg (15 ml/kg) i.p. (i.p.=intraperitoneally) and thirty (30) minutes later physiological saline (20 ml/kg) s.c. (s.c.=subcutaneously). The motility is measured by an Animex™ motimeter 45-75 minutes after 5-HTP administration. The test animals received test substance s.c. (20 ml/kg) instead of physiological saline. Five groups of two (2) mice are used for control and per dose of each test drug. the test substance is dosed according to the dose scale 1, 1.6, 2.5, 4, 6.3, and 10 mg/kg etc.
The activity of the test animals is compared to the activity of controls. The best straight line is fitted through the points in a coordinate system (abscissa log dose, ordinate log activity). […] The activity of controls is investigated in thirty (30) groups of two (2) mice.

mice = experiment: in vivo; conditions: for FG 8033 is better by: T.I. % / FG 8033 is better by: T.I. Factor: FG 8033 compared with the listed compound, mice s.c.
Protocol: (§1) (J. Buus Lassen, European Journal of Pharmacology 47, 351-358 (1978)). See also Squires in Acta Pharmacol. et Toxicol, 1972, 31 Suppl. 1,35 for a description of a further procedure for measurement of the same 5-HT uptake-inhibitory phenomenon.
(§2) II. ACUTE TOXICITY IN MICE
(§3) A variation of the procedure of J. Buus Lassen, et al. in European Journal of Pharmacology 32, 108-115 (1975) is employed. The test drug is administered s.c. in increasing doses to mice, four (4) animals at each dose level.
(§4) Results are expressed as LD50 = . . . mg/kg s.c.

in vivo = conditions: mouse, in vivo, sc
Protocol: as §1, §2, §3, §4

[1] = versus (+) trans isomer FG 8032
[2] = versus (+), trans des-p-fluoro compound FG 4963
[3] = versus (-), trans des-p-fluoro compound FG 4962

Row | SMILES | FG 8033 is better by: 5-HT Potentiation % (5-HT uptake) [%] | FG 8033 is better by: 5-HT Potentiation Factor (5-HT uptake) | ED50 (5-HT uptake; mice) [mg/kg] | FG 8033 is better by: T.I. % (mice) [%] | FG 8033 is better by: T.I. Factor (mice) | other results
1 | CC(=O)O.COc1ccc(OC[C@@H]2CNCC[C@H]2c2ccc(F)cc2)cc1 (single isomer, unassigned) [FG 8035, (+)-trans-4-(4-fluorophenyl)-3-((4-methoxyphenoxy)methyl)-piperidine acetate] | 4400 | 44 | 22 | 3333 | 33.33 | 
2 | COc1ccc(OC[C@H]2CNCC[C@@H]2c2ccccc2)cc1 (single isomer, unassigned) [FG 4996, reference compound] | 1800 | 18 | 9 | 5714 | 57.14 | 
3 | COc1ccc(OC[C@@H]2CN(C)CC[C@H]2c2ccccc2)cc1 (relative stereo) [FG 4932, reference compound] |  |  | 7.7 |  |  | 
4 | CN1CC[C@@H](c2ccc(F)cc2)[C@H](COc2ccc3c(c2)OCO3)C1 (single isomer, unassigned) [FG 7043, reference compound] |  |  | 4 |  |  | 
5 | COc1ccc(OC[C@@H]2CN(C)CC[C@H]2c2ccc(F)cc2)cc1 (relative stereo) [FG 98-I] | 260 | 2.6 | 1.3 | 174 | 1.74 | 
6 | COc1ccc(OC[C@@H]2CN(C)CC[C@H]2c2ccccc2)cc1 (single isomer, unassigned) [FG 4962, reference compound] |  |  | 3.8 |  |  | 
7 | COc1ccc(OC[C@@H]2CN(C)CC[C@H]2c2ccc(F)cc2)cc1 (single isomer, unassigned) [FG 8033, (-)-trans-4-(4-fluorophenyl)-3-[(4-methoxyphenoxy)-methyl]-1-methyl-piperidine] |  |  | 0.5 |  |  | degree of activity in test for potentiation of 5-hydroxytryptophane-induced hypermotility (in words) (5-HT uptake; mice): remarkably and unpredictably superior in its 5-HT potentiation to the most structurally closely-related compounds evaluated; 5-HT potentiation activity relative to FG 8032 (5-HT uptake; [1]): 46 times; 5-HT potentiation activity relative to FG 8032, percent (5-HT uptake; [1]): 4600%; superiority as to 5-HT potentiation over FG 4963, factor (5-HT uptake; [2]): 5.6; superiority as to 5-HT potentiation over FG 4963, percent (5-HT uptake; [2]): 560%; 5-HT potentiation activity relative to FG 4962 (5-HT uptake; [3]): 7.6 times; 5-HT potentiation activity relative to FG 4962, percent (5-HT uptake; [3]): 760%; Therapeutic Index (in words) (mice; calculated as LD50/ED50): even more remarkably and unpredictably superior to those most structurally closely-related compounds when considering its Therapeutic Index; Therapeutic Index relative to FG 8032 (mice; [1]): more than 47 times; Therapeutic Index relative to FG 8032, percent (mice; [1]): > 4700%; superiority as to Therapeutic Index over FG 4963, factor (mice; [2]): greater than 5.97 times; superiority as to Therapeutic Index over FG 4963, percent (mice; [2]): > 597%; Therapeutic Index relative to FG 4962 (mice; [3]): more than 15 times; Therapeutic Index relative to FG 4962, percent (mice; [3]): > 1500%
8 | COc1ccc(OC[C@H]2CN(C)CC[C@@H]2c2ccccc2)cc1 (single isomer, unassigned) [FG 4963, reference compound] |  |  | 2.8 |  |  | 
9 | COc1ccc(OC[C@@H]2CNCC[C@H]2c2ccccc2)cc1 (single isomer, unassigned) [FG 7006, reference compound] | 4000 | 40 | 20 | 4444 | 44.44 | selectivity ratio (in vivo): 18; Test 001 acute toxicity LD50 (mice; mice, s.c., lethality at 24 hours, water-soluble salt): 350 mg/kg
10 | COc1ccc(OC[C@@H]2CN(C)CC[C@H]2c2ccc(F)cc2)cc1.Cl (single isomer, unassigned) [FG 8032, (+)-trans-4-(4-fluorophenyl)-3-[(4-methoxyphenoxy)methyl]-1-methylpiperidine hydrochloride] |  |  | 23 |  |  | 
11 | COc1ccc(OC[C@@H]2CNCC[C@H]2c2ccc(F)cc2)cc1 (single isomer, unassigned) [FG 7080, (-)-trans-4-(4-fluorophenyl)-3-[(4-methoxyphenoxy)-methyl]-piperidine] |  |  | 1 |  |  | 

From patent publication US4593036A, “(-)-Trans-4-(4-fluorophenyl)-3-[(4-methoxyphenoxy)meth yl]-1-methylpiperidine useful as 5-HT potentiator” (priority 1984, dated 1986)
